Measured values taken from ChEMBL document CHEMBL4130574, “Discovery of novel 2,4-diarylaminopyrimidine analogues as ALK and ROS1 dual inhibitors to overcome crizotinib-resistant mutants including G1202R” (Eur J Med Chem, 2018).
Activity calls are given as the source filed them. No cut-off for these calls is given here.

Assays:
[1] = target: ALK tyrosine kinase receptor (Homo sapiens, UniProt Q9UM73, C1156Y)
[2] = system: HCC78; experiment: Downregulation of ROS1 protein expression in human HCC78 cells at 100 nM after 6 hrs by Western blot method; assay type: functional, cell-based
[3] = system: ALK tyrosine kinase receptor (Homo sapiens), Q9UM73 [L1196M]
[4] = target: ALK tyrosine kinase receptor (Homo sapiens, UniProt Q9UM73, G1269A)
[5] = target: ALK tyrosine kinase receptor (Homo sapiens, UniProt Q9UM73, T1151INS)
[6] = target: T1, ALK tyrosine kinase receptor (Homo sapiens, UniProt Q9UM73)
Target sequence in this assay (Q9UM73 whole entry): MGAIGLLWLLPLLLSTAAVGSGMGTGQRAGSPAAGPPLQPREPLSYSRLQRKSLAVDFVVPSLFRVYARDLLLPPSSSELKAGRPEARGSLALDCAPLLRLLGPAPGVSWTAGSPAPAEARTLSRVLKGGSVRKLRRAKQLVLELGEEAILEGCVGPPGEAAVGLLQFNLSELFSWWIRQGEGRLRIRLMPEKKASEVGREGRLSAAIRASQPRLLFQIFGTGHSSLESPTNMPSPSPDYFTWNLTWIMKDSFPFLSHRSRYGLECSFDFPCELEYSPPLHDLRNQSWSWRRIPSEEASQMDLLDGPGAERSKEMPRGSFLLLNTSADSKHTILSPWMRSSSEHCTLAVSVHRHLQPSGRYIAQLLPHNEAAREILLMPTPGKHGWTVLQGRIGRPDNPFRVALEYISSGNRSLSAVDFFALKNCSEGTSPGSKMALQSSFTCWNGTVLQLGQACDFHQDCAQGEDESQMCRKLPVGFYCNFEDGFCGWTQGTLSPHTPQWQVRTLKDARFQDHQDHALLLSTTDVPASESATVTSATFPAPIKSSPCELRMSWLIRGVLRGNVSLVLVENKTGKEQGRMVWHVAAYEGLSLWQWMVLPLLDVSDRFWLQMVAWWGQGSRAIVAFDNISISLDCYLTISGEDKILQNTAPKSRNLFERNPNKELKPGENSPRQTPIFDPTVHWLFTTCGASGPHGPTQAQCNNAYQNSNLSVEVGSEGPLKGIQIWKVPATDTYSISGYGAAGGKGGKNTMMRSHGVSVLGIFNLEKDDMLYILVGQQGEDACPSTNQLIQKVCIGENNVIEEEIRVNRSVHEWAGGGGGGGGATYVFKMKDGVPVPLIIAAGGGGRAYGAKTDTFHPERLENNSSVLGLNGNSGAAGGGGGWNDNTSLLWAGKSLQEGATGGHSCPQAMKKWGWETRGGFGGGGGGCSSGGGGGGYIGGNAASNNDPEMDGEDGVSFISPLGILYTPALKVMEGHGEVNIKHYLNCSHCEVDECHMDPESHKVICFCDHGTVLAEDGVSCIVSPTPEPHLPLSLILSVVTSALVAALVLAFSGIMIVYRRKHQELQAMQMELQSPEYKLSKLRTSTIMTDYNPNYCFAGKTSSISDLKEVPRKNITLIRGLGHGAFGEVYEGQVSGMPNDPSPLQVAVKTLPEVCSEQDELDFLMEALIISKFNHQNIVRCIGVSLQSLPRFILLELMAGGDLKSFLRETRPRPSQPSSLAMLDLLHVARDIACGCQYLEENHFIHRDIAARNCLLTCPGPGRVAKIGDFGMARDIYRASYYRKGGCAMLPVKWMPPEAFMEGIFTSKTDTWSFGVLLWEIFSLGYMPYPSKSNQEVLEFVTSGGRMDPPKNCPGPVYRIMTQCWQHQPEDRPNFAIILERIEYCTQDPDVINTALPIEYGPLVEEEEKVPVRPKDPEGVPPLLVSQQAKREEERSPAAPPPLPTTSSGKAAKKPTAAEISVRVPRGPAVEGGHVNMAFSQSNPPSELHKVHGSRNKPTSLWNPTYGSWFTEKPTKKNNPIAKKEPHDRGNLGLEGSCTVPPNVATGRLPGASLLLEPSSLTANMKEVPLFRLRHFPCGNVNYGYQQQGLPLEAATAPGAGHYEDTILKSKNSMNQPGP
Description: Inhibition of recombinant human N-terminal GST-tagged ALK cytoplasmic domain (1058 to 1620 residues) expressed in baculovirus expression system using peptide substrate after 1 hr by mobility shift assay

[7] = system: HCC78; experiment: Antiproliferative activity against human HCC78 cells harboring SLC34A2-ROS1 after 72 hrs by MTT assay; assay type: functional, cell-based; conditions: HCC78, 72 h
[8] = target: ALK tyrosine kinase receptor (Homo sapiens, UniProt Q9UM73, S1206Y)
[9] = system: KARPAS-299; experiment: Downregulation of ALK protein expression in human KARPAS299 cells after 6 hrs by Western blot method; assay type: functional, cell-based
[10] = target: ALK tyrosine kinase receptor (Homo sapiens, UniProt Q9UM73, L1196M)
[11] = target: T2, Proto-oncogene tyrosine-protein kinase ROS (Homo sapiens, UniProt P08922); experiment: Inhibition of recombinant human N-terminal GST-tagged ROS1 cytoplasmic domain (1883 to 2347 residues) expressed in baculovirus expression system using peptide substrate after 1 hr by mobility shift assay
[12] = system: NCI-H2228; experiment: cells; conditions: Homo sapiens, NCI-H2228, 72 h
Description: Antiproliferative activity against human NCI-H2228 cells harboring EML4-ALK after 72 hrs by MTT assay

[13] = target: ALK tyrosine kinase receptor (Homo sapiens, UniProt Q9UM73, G1202R)
[14] = system: HCC78; experiment: Induction of apoptosis in human HCC78 cells harboring SLC34A2-ROS1 after 24 hrs by acridine orange/ethidium bromide staining based fluorescence microscopic method; assay type: functional, cell-based
[15] = system: KARPAS-299; experiment: Antiproliferative activity against human KARPAS299 cells harboring NPM-ALK after 72 hrs by MTT assay; assay type: functional, cell-based; conditions: KARPAS-299, 72 h
[16] = system: ALK tyrosine kinase receptor (Homo sapiens), Q9UM73 [G1202R]
[17] = target: T2, Proto-oncogene tyrosine-protein kinase ROS; experiment: Inhibition of ROS1 phosphorylation in human HCC78 cells at 100 nM after 6 hrs by Western blot method; assay type: cell-based
[18] = system: NCI-H460; experiment: cells; conditions: Homo sapiens, NCI-H460, 72 h
Description: Antiproliferative activity against human NCI-H460 cells after 72 hrs by MTT assay

[19] = target: T1, ALK tyrosine kinase receptor; experiment: Inhibition of ALK phosphorylation in human KARPAS299 cells after 6 hrs by Western blot method; assay type: cell-based
[20] = system: A549; experiment: cells; conditions: Homo sapiens, A549, 72 h
Description: Antiproliferative activity against human A549 cells harboring EGFR after 72 hrs by MTT assay

[21] = target: Epidermal growth factor receptor (Homo sapiens, UniProt P00533)
Description: Inhibition of recombinant human N-terminal GST-tagged EGFR cytoplasmic domain (669 to 1210 residues) expressed in baculovirus expression system using peptide substrate after 1 hr by mobility shift assay

[22] = system: KARPAS-299; experiment: Induction of apoptosis in human KARPAS299 cells harboring NPM-ALK after 24 hrs by acridine orange/ethidium bromide staining based fluorescence microscopic method; assay type: functional, cell-based
[23] = target: Hepatocyte growth factor receptor (Homo sapiens, UniProt P08581); experiment: Inhibition of recombinant human N-terminal GST-tagged c-MET cytoplasmic domain (956 to 1390 residues) expressed in baculovirus expression system using peptide substrate after 1 hr by mobility shift assay
[24] = Selectivity ratio of IC50 for human HCC78 cells harboring SLC34A2-ROS1 to IC50 for human KARPAS299 cells harboring NPM-ALK; assay type: functional
[25] = Selectivity ratio of IC50 for human HCC78 cells harboring SLC34A2-ROS1 to IC50 for human NCI-H2228 cells harboring EML4-ALK; assay type: functional

T2 sequence (P08922 whole entry, the tested form may be a part): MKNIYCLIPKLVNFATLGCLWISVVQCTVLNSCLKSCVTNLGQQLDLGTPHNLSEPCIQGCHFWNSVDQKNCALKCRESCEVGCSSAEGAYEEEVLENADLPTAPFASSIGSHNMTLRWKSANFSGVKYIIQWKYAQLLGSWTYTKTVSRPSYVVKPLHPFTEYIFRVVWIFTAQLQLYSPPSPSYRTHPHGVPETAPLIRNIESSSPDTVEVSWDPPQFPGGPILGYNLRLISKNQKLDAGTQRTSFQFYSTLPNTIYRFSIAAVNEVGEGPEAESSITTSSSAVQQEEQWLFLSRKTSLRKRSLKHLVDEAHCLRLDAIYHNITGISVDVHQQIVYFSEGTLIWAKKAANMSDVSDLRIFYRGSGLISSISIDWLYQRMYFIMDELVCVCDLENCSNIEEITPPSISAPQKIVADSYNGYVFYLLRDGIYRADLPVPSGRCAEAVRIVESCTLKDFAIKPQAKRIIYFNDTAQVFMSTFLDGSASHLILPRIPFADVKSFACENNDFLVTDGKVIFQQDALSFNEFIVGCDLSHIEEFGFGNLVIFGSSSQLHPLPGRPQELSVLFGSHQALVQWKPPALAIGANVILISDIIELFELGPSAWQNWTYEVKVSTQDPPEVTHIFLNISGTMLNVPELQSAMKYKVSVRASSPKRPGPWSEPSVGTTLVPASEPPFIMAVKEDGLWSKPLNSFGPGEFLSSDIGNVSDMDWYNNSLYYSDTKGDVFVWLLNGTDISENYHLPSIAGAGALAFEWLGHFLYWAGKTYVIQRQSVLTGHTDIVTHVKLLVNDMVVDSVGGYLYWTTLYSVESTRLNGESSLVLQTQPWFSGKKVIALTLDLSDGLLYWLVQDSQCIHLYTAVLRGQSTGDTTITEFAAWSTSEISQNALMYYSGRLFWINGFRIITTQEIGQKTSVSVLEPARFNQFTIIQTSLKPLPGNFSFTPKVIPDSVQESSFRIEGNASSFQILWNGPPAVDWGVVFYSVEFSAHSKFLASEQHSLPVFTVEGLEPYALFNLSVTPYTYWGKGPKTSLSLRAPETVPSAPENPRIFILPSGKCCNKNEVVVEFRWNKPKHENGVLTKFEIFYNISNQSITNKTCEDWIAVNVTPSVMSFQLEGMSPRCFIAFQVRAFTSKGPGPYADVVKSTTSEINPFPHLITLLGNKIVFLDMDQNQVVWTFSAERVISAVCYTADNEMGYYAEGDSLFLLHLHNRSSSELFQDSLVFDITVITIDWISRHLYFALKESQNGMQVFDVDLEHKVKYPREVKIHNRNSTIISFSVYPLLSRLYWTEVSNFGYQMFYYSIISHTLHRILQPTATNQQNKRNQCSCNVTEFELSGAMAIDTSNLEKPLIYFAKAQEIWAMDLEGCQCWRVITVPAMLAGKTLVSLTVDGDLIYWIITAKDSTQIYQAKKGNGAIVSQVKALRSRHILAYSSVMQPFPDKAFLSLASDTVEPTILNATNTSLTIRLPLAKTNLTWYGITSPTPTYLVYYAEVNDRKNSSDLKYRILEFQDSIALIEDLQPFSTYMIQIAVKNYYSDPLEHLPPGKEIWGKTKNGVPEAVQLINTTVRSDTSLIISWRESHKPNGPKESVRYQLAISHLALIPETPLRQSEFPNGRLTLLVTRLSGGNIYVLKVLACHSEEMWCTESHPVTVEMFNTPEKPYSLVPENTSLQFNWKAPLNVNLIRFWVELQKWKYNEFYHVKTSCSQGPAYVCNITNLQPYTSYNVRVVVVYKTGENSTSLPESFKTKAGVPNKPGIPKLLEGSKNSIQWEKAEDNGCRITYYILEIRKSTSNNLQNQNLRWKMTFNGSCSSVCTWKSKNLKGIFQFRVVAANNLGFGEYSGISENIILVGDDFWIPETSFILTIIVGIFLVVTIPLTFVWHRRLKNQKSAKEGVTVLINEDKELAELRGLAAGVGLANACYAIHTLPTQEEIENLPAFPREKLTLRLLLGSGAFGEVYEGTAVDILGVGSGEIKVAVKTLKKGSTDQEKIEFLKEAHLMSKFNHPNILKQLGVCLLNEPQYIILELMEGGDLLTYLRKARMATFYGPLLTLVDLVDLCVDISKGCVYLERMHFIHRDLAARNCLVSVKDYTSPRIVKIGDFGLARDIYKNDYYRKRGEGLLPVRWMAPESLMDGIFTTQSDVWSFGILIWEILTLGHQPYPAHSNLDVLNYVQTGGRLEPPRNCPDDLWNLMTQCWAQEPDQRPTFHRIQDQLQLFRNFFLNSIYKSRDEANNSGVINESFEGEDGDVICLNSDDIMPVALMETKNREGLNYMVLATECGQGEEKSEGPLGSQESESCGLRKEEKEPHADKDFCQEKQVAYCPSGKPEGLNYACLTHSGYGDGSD
Epidermal growth factor receptor, sequence (P00533 whole entry): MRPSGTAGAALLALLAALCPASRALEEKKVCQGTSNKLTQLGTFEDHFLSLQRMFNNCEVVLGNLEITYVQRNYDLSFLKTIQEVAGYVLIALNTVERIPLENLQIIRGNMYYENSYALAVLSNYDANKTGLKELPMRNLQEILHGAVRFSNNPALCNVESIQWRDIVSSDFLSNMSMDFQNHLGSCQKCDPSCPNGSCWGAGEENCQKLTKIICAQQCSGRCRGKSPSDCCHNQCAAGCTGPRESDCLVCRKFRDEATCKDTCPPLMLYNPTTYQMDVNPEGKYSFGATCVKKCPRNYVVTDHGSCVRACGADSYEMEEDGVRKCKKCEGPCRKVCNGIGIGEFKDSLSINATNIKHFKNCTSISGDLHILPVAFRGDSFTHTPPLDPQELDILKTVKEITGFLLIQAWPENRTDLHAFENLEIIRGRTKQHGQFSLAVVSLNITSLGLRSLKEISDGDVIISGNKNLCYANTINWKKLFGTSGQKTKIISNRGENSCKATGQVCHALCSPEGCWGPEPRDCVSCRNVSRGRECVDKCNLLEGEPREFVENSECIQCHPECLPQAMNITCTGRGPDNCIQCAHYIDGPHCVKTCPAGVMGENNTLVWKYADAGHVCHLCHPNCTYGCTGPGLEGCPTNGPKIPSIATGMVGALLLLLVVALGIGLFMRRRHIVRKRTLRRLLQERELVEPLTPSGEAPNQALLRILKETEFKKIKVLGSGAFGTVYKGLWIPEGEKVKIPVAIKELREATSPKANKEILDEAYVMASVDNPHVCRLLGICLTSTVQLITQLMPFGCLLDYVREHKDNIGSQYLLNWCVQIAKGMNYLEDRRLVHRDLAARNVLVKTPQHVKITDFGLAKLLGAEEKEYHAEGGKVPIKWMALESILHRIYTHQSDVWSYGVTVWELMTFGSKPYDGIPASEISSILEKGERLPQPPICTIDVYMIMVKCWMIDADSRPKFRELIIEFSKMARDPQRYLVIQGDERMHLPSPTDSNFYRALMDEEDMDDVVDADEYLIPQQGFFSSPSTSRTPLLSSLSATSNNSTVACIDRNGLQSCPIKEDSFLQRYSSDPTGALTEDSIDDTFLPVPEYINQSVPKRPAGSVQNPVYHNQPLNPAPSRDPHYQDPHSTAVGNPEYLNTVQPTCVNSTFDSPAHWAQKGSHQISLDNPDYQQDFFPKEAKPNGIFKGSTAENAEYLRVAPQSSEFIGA

SMILES | IC50 [6] [µM] | IC50 [7] [µM] | IC50 [11] [µM] | IC50 [12] [µM] | IC50 [15] [µM] | IC50 [18] [µM] | IC50 [20] [µM] | IC50 [21] [µM] | IC50 [23] [µM] | also measured
COc1cc(-n2cc(CN3CCN(C)CC3)nn2)ccc1Nc1ncc(Cl)c(Nc2ccccc2S(=O)(=O)C(C)C)n1 | 0.0014 | 0.04 | 0.0011 | 0.095 | 0.021 | > 1 | > 1 | > 1 | > 1 | IC50 [1]: 0.003 µM; Activity [2]: Active; Ratio IC50 [3]: 11; IC50 [4]: 0.0028 µM; IC50 [5]: 0.0023 µM; IC50 [8]: 0.0046 µM; Activity [9]: Dose-dependent effect; IC50 [10]: 0.0031 µM; IC50 [13]: 0.0087 µM; Activity [14]: Dose-dependent effect; Ratio IC50 [16]: 10; inhibition [17]: Active; inhibition [19]: Dose-dependent effect; Activity [22]: Dose-dependent effect
COc1cc(-c2nc(CN3CCN(C)CC3)cs2)ccc1Nc1ncc(Cl)c(Nc2ccccc2S(=O)(=O)C(C)C)n1 | 0.0023 | 0.093 | 0.0098 | 0.098 | 0.022 | 0.87 | > 1 | > 1 | 0.82 | Ratio IC50 [24]: 2.3; Ratio IC50 [25]: 2.3
